Measurements from US20060036073A1, “Neurotrophic and neuroprotective peptides” (priority 2002, published 2006).
Where a SMILES comes first, the peptide text is derived from it. Where no end group is shown, it is not given here.

Columns and labels:
[1] = test system: cortical neurons that are obtained from chicken embryos; experiment: Summary of the screening over all neuroprotection assays; type: cell-based; settings: for Active in: (number of assays): Table 2 summary
Procedure: Since the targets of the therapy with the peptides presented according to the invention are various neurodegenerative diseases, different model systems for detecting the biological activity of the peptides according to the invention in the case of neurodegenerative diseases were used. Later, the individually used model systems and the results thus achieved are described. […] That is to say, the implementation of the tests was carried out on different days with different cell preparations and by different individuals. For some peptides, two numbers were issued (#1=#23 or #6=#35 or #7=#43), but the results with these peptides were only shown once. […] With some other substances, there were problems in the production, and thus only small amounts were available, and it was not possible to test the substances in all the assays (#12, 14, 17, 35 and #48). […] As could be seen from the figures, the standard deviations, i.e., the fluctuations between the independent experiments, are to some extent quite large. These fluctuations can be attributed to stability problems. These peptides are the peptides that are preferred within the scope of the invention.

[2] = test system: cortical neurons that are obtained from chicken embryos; experiment: Chronic disruption of the calcium metabolism by ionomycin, neuron viability by MTT; type: cell-based; settings: ionomycin 10 μM, 24 hours
Procedure: It is common to these biological test systems that cortical neurons that are obtained from chicken embryos are cultivated in culture plates for eight days and then are exposed to a specific noxa (Pettmann et al., Nature 281 (5730): 378-80 [1979]).
To this end, a one-day-old, fertilized hen's egg is incubated for eight days at +12 +/− 0.1° C. and 80 +/− 5% atmospheric humidity. On the embryonal day 0, the eggs are transferred into an incubator and incubated up to the embryonal day 8 at 38 +/− 0.5° C. and 55 +/− 5%. After the brains are removed, the cortices are isolated, homogenized, and neurons are taken into primary culture (culture conditions: Dulbecco's Modified Eagle's Medium, 20% v/v fetal calf serum, 0.01% gentamicin, 1 g/l of glucose, 2 mmol of L-glutamine, +37° C., 5% CO2 and 95% atmospheric humidity). […] After the end of the specified stress period, the proportion of the still living neurons is determined with a metabolic colorimetric assay (the reaction of the yellow chromophore MTT to a blue formazan product is carried out only by living cells).
It is expected that in the case of various neurodegenerative diseases, chronic calcium overloading occurs because of metabolic malfunctions, which ultimately produces cell death via the activation of various enzyme systems. […]

[3] = test system: amyloid-beta peptides (β-amyloid 25-35) / nerve cell cultures; experiment: Amyloid-beta aggregation assay (peptide added to fresh amyloid-beta solution, effect on nerve cell cultures); type: cell-based, chicken; settings: for AβP reagg. (diff vs C): difference vs control, only one round of testing
Procedure: Beta-Amyloid peptides represent, in aggregated form, a potent neurotoxin whose addition to the nerve cell cultures results in a quick and progressive cell death. Since beta-amyloid peptides constitute an essential role in the pathogenesis of Alzheimer's disease, this model can be considered especially relevant.
This biological test is a process for testing anti-aggregatory substance potential that is specially developed for this project. The newly synthesized peptides are added directly to a fresh solution of amyloid-beta peptides to prevent the formation of neurotoxic aggregates. The effect that aggregates that still develop have on growth and survival of nerve cell cultures is the measurement parameter.

[4] = test system: cortical neurons that are obtained from chicken embryos; experiment: Serum-withdrawal assay (2% assay), neuron viability by MTT; type: cell-based
Procedure: This simulates the disruptions in the stimulation of neurons with nerve growth factors that are assumed to be one of the possible causes of neurodegenerative diseases. The effectiveness of the new peptides in preventing cell death was measured.

Question: For `CSCC[C@H](NC(=O)[C@H](Cc1ccccc1)NC(=O)[C@@H](NC(=O)[C@@H](N)CC(=O)O)C(C)C)C(=O)O` [BH#33, DVFM] (H-DVFM-OH; N-terminus and C-terminus assumed), which “effectiveness across the screening assays (in words)” value [1] is on record?
Answer: effective in only one screening assay

Question: Which results are given for `CC(C)[C@H](NC(=O)[C@@H](N)CC(=O)O)C(=O)N[C@@H](Cc1ccccc1)C(=O)O` [BH#34, DVF] (H-Asp-Val-Phe-OH)?
Answer: increase in cell vitality to [2]: about 150%; AβP reagg. (diff vs C) [3]: 19%

Question: Which results are given for Ac-SMAKEGV [BH#8, SMAKEGV]?
Answer: increase in cell vitality to [2]: about 150%; action in models of pathological processes of neurodegenerative diseases (in words) [1]: excellent action; Active in: (number of assays) [1]: 5 of 7

Question: How did the “effectiveness across the screening assays (in words)” value [1] turn out when DVFMK [BH#32] was run?
Answer: not effective in any assay

Question: DVFMKGL [BH#30, DVFMKGL] was tested. Which “effectiveness across the screening assays (in words)” value [1] did it give?
Answer: effective in only one screening assay

Question: How did the “Active in: (number of assays)” value [1] turn out when DVFMKGLSM [BH#28, DVFMKGLSM] was run?
Answer: 4 of 7

Question: Which “Active in: (number of assays)” value [1] does the source give for DVFMKGLSMA [BH#27, DVFMKGLSMA] here?
Answer: 4 of 7

Question: For DVFMKGLSMAK [BH#26], which “increase of neuronal vitality by” value ([3]; β-amyloid 25-35, peptide added to fresh amyloid solution) is on record?
Answer: 74%

Question: And the “Active in: (number of assays)” value [1]?
Answer: 2 of 7

Question: GLS [BH#41] was tested. Which “effectiveness across the screening assays (in words)” value [1] did it give?
Answer: not effective in any assay

Question: GLSMA [BH#39] was tested. Which “effectiveness across the screening assays (in words)” value [1] did it give?
Answer: effective in only one screening assay

Question: GLSMAKE [BH#37, GLSMAKE] was tested. Which “effects over the effects of the control (=100%)” value (from here on “effects … (=100%)”) [4] did it give?
Answer: 150%

Question: Which results are given for LSMAK [BH#46, LSMAK]?
Answer: action in models of pathological processes of neurodegenerative diseases (in words) [1]: excellent action; Active in: (number of assays) [1]: 2 of 7

Question: LSMAKE [BH#45, LSMAKE] was tested. Which “effectiveness across the screening assays (in words)” value [1] did it give?
Answer: effective in only one screening assay

Question: How did the “effects … (=100%)” value [4] turn out when LSMAKEGV [BH#7, LSMAKEGV] was run?
Answer: approximately 450%

Question: For MDVFMK [BH#20, MDVFMK], which “effectiveness across the screening assays (in words)” value [1] is on record?
Answer: effective in only one screening assay

Question: Which “AβP reagg. (diff vs C)” value [3] does the source give for MDVFMKG [BH#19, MDVFMKG] here?
Answer: 20%

Question: How did the “effectiveness across the screening assays (in words)” value [1] turn out when MDVFMKGL [BH#18] was run?
Answer: not effective in any assay

Question: With MDVFMKGLSM [BH#16, MDVFMKGLSM] as the molecule, how does the “effects … (=100%)” value [4] read?
Answer: 150%

Question: What about the “Active in: (number of assays)” value [1] of the same molecule?
Answer: 4 of 7
